Experimental data published in patent US20240109903A1, “SUBSTITUTED HETEROCYCLES FOR TREATING CANCER” (Northwestern University, priority 2022, published 2024).

Experiments:
SN12C = test: NCI 60 five-dose screen SN12C; assay type: cell-based; settings: Homo sapiens
CAKI-1 = test: NCI 60 five-dose screen CAKI-1; assay type: cell-based; settings: Homo sapiens
LOX IMVI = test: NCI 60 five-dose screen LOX IMVI; assay type: cell-based; settings: Homo sapiens
SR = test: NCI 60 five-dose screen SR; assay type: cell-based, human
SK-MEL-2 = test: NCI 60 five-dose screen SK-MEL-2; assay type: cell-based; settings: Homo sapiens
KM12 = test: NCI 60 five-dose screen KM12; assay type: cell-based; settings: Homo sapiens
A549/ATCC = test: NCI 60 five-dose screen A549/ATCC; assay type: cell-based; settings: Homo sapiens
MOLT-4 = test: NCI 60 five-dose screen MOLT-4; assay type: cell-based; settings: Homo sapiens
HCT-15 = test: NCI 60 five-dose screen HCT-15; assay type: cell-based; settings: Homo sapiens
MCF7 = test: NCI 60 five-dose screen MCF7; assay type: cell-based; settings: Homo sapiens
SF-539 = test: NCI 60 five-dose screen SF-539; assay type: cell-based; settings: Homo sapiens
HL-60(TB) = test: NCI 60 five-dose screen HL-60(TB); assay type: cell-based; settings: Homo sapiens
HCC-2998 = test: NCI 60 five-dose screen HCC-2998; assay type: cell-based; settings: Homo sapiens
786-0 = test: NCI 60 five-dose screen 786-0; assay type: cell-based; settings: Homo sapiens
IGROV1 = test: NCI 60 five-dose screen IGROV1; assay type: cell-based; settings: Homo sapiens
TK-10 = test: NCI 60 five-dose screen TK-10; assay type: cell-based; settings: Homo sapiens
MALME-3M = test: NCI 60 five-dose screen MALME-3M; assay type: cell-based; settings: Homo sapiens, Malme-3M
K-562 = test: NCI 60 five-dose screen K-562; assay type: cell-based; settings: Homo sapiens
MDA-MB-231/ATCC = test: NCI 60 five-dose screen MDA-MB-231/ATCC; assay type: cell-based; settings: Homo sapiens
OVCAR-8 = test: NCI 60 five-dose screen OVCAR-8; assay type: cell-based; settings: Homo sapiens
SF-268 = test: NCI 60 five-dose screen SF-268; assay type: cell-based; settings: Homo sapiens
NCI-H322M = test: NCI 60 five-dose screen NCI-H322M; assay type: cell-based; settings: Homo sapiens
SNB-19 = test: NCI 60 five-dose screen SNB-19; assay type: cell-based; settings: Homo sapiens
SF-295 = test: NCI 60 five-dose screen SF-295; assay type: cell-based; settings: Homo sapiens
HOP-92 = test: NCI 60 five-dose screen HOP-92; assay type: cell-based; settings: Homo sapiens
COLO 205 = test: NCI 60 five-dose screen COLO 205; assay type: cell-based; settings: Homo sapiens
HT29 = test: NCI 60 five-dose screen HT29; assay type: cell-based; settings: Homo sapiens
RXF 393 = test: NCI 60 five-dose screen RXF 393; assay type: cell-based; settings: Homo sapiens
[1] = read-out: LC50 (the source's name) (converted)

Molecule `COc1cc(Cn2c(C(F)(F)F)cc3c(Cl)ncnc32)ccn1` [NUCC-0226694] has a GI50 (SN12C) of 9.12 µM, an IC50 (SN12C) of 15.5 µM and an IC (TGI) (SN12C) of 21.4 µM. The CC50 (SN12C; [1]) was 46.8 µM, the GI50 (CAKI-1) was 7.24 µM and the IC50 (CAKI-1) was 13.8 µM. The IC (TGI) (CAKI-1) was 20.4 µM, the CC50 (CAKI-1; [1]) was 46.8 µM and the GI50 (LOX IMVI) was 1.66 µM. The IC50 (LOX IMVI) was 2.88 µM, the IC (TGI) (LOX IMVI) was 3.16 µM and the CC50 (LOX IMVI; [1]) was 6.03 µM. For the same molecule, the TGI (SR) was 4 −log[M], the GI50 (SR; Homo sapiens) was 3.63 µM and the IC50 (SR; Homo sapiens) was 4.79 µM. It also gave a CC50 (SR; Homo sapiens, read-out: LC50 (the source's name)) of at least 100 µM, a GI50 (SK-MEL-2) of 10 µM and an IC50 (SK-MEL-2) of 21.9 µM. It also gave an IC (TGI) (SK-MEL-2) of 22.4 µM, a CC50 (SK-MEL-2; [1]) of 51.3 µM and a GI50 (KM12) of 13.5 µM. For the same molecule, the IC50 (KM12) was 22.9 µM, the IC (TGI) (KM12) was 30.2 µM and the CC50 (KM12; [1]) was 69.2 µM. It also gave a GI50 (A549/ATCC) of 16.6 µM, an IC50 (A549/ATCC) of 27.5 µM and an IC (TGI) (A549/ATCC) of 38 µM. It also gave a CC50 (A549/ATCC; [1]) of 89.1 µM, a GI50 (MOLT-4) of 3.31 µM and an IC50 (MOLT-4) of 4.57 µM. It also gave an IC (TGI) (MOLT-4) of 100 µM, a CC50 (MOLT-4; read-out: LC50 (the source's name)) of at least 100 µM and a GI50 (HCT-15) of 3.09 µM. The IC50 (HCT-15) was 3.8 µM, the IC (TGI) (HCT-15) was 10 µM and the CC50 (HCT-15; [1]) was 53.7 µM. For the same molecule, the GI50 (MCF7) was 5.13 µM, the IC50 (MCF7) was 7.24 µM and the IC (TGI) (MCF7) was 20 µM. The CC50 (MCF7; [1]) was 61.7 µM, the GI50 (SF-539) was 13.8 µM and the IC50 (SF-539) was 24.5 µM. It also gave an IC (TGI) (SF-539) of 26.9 µM, a CC50 (SF-539; [1]) of 51.3 µM and a GI50 (HL-60(TB)) of 2.14 µM. For the same molecule, the IC50 (HL-60(TB)) was 3.39 µM, the IC (TGI) (HL-60(TB)) was 7.24 µM and the CC50 (HL-60(TB); [1]) was at least 100 µM. The GI50 (HCC-2998) was 1.78 µM, the IC50 (HCC-2998) was 3.16 µM and the IC (TGI) (HCC-2998) was 3.24 µM. For the same molecule, the CC50 (HCC-2998; [1]) was 6.03 µM, the GI50 (786-0) was 10.7 µM and the IC50 (786-0) was 17 µM. For the same molecule, the IC (TGI) (786-0) was 25.7 µM, the CC50 (786-0; [1]) was 63.1 µM and the GI50 (IGROV1; IGROV-1) was 1.78 µM. It also gave an IC50 (IGROV1; IGROV-1) of 3.16 µM, an IC (TGI) (IGROV1; IGROV-1) of 3.63 µM and a CC50 (IGROV1; IGROV-1, read-out: LC50 (the source's name) (converted)) of 7.41 µM. For the same molecule, the GI50 (TK-10) was 19.1 µM, the IC50 (TK-10) was 45.7 µM and the IC (TGI) (TK-10) was 46.8 µM. The CC50 (TK-10; [1]) was at least 100 µM, the GI50 (MALME-3M) was 12.6 µM and the IC50 (MALME-3M) was 25.7 µM. It also gave an IC (TGI) (MALME-3M) of 25.7 µM, a CC50 (MALME-3M; [1]) of 51.3 µM and a GI50 (K-562; K562) of 2.34 µM. The IC50 (K-562; K562) was 2.69 µM, the IC (TGI) (K-562; K562) was 100 µM and the CC50 (K-562; K562, read-out: LC50 (the source's name)) was at least 100 µM. The GI50 (MDA-MB-231/ATCC) was 3.31 µM, the IC50 (MDA-MB-231/ATCC) was 7.94 µM and the IC (TGI) (MDA-MB-231/ATCC) was 12.6 µM. For the same molecule, the CC50 (MDA-MB-231/ATCC; [1]) was 42.7 µM, the GI50 (OVCAR-8) was 11.5 µM and the IC50 (OVCAR-8) was 19.1 µM. The IC (TGI) (OVCAR-8) was 26.3 µM, the CC50 (OVCAR-8; [1]) was 61.7 µM and the GI50 (SF-268) was 2.45 µM. The IC50 (SF-268) was 4.57 µM, the IC (TGI) (SF-268) was 9.33 µM and the CC50 (SF-268; [1]) was 41.7 µM. It also gave a GI50 (NCI-H322M) of 1.7 µM, an IC50 (NCI-H322M) of 3.16 µM and an IC (TGI) (NCI-H322M) of 3.31 µM. For the same molecule, the CC50 (NCI-H322M; [1]) was 6.31 µM, the GI50 (SNB-19) was 11.7 µM and the IC50 (SNB-19) was 21.4 µM. The IC (TGI) (SNB-19) was 24 µM, the CC50 (SNB-19; [1]) was 49 µM and the GI50 (SF-295) was 16.6 µM. It also gave an IC50 (SF-295) of 30.2 µM, an IC (TGI) (SF-295) of 32.4 µM and a CC50 (SF-295; [1]) of 63.1 µM. It also gave a GI50 (HOP-92) of 10.7 µM, an IC50 (HOP-92) of 33.9 µM and an IC (TGI) (HOP-92) of 30.2 µM. It also gave a CC50 (HOP-92; [1]) of 85.1 µM, a GI50 (COLO 205) of 15.1 µM and an IC50 (COLO 205) of 26.3 µM. It also gave an IC (TGI) (COLO 205) of 46.8 µM, a CC50 (COLO 205; [1]) of at least 100 µM and a GI50 (HT29; HT-29) of 14.1 µM. For the same molecule, the IC50 (HT29; HT-29) was 21.9 µM, the IC (TGI) (HT29; HT-29) was 41.7 µM and the CC50 (HT29; HT-29, read-out: LC50 (the source's name) (converted)) was at least 100 µM. The GI50 (RXF 393) was 7.94 µM, the IC50 (RXF 393) was 24.5 µM and the IC (TGI) (RXF 393) was 22.4 µM. It also gave a CC50 (RXF 393; [1]) of 55 µM.
